Laboratory results from US9271978B2 (Zenith Epigenetics Corp., priority 2012, dated 2016).

What was measured:
Parameters in all cases: key: Active: Compounds with an IC50 value less than 30 μM were deemed to be active.; Not Active: Compounds with an IC50 value less than 30 μM were deemed to be active
[1] = biological target: T1, second bromodomain of Brd2 (BRD2(2)) (Homo sapiens, UniProt P25440); assay: Inhibition of tetra-acetylated histone H4 binding to Brd2 bromodomain 2 (TR-FRET); conditions: tetra-acetylated histone H4 peptide, active = IC50 <30 μM
T1 construct: made in house; host or cells: E. coli BL21 (DE3)
Method in brief: (§1)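 N-terminally His-tagged bromodomains (200 nM), expressed in E. coli, were incubated with biotinylated tetra-acetylated histone H4 peptide (25-50 nM), Eu-cryptate streptavidin and XL665 anti-His antibody in HEPES pH 7.4 buffer with KF, 0.2% DMSO, 2 h at room temperature. Inhibition read as decreased 665/620 nm TR-FRET; IC50 from dose-response curves.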

[2] = tested on: c-myc; assay: Inhibition of c-myc expression in MV4-11 cells (mRNA, real-time PCR); assay type: cell-based; conditions: Human AML MV4-11 cells, 3 h incubation
Procedure: MV4-11 cells (2.5×10^4 cells) were plated in 96 well U-bottom plates with test compound or DMSO (0.1%), and incubated for 3 h at 37° C. Cells were then harvested by centrifugation, lysed, and mRNA was isolated using the mRNA catcher plus kit (Invitrogen). Reverse transcription of the mRNA and duplex amplification of the c-myc and cyclophilin cDNAs was performed using the RNA Ultrasense kit (Invitrogen) and a ViiA7 real-time PCR machine (Applied Biosystems). IC50 values were determined from a dose response curve.

[3] = biological target: T2, Brd4 bromodomain 1 (BRD4(1)) (Homo sapiens, UniProt O60885); assay: Inhibition of tetra-acetylated histone H4 binding to Brd4 bromodomain 1 (TR-FRET); conditions: tetra-acetylated histone H4 peptide, active = IC50 <30 μM
T2 construct: Illustrative results with the first bromodomain of Brd4; made in house; host or cells: E. coli BL21 (DE3)
Method in brief: as §1

[4] = tested on: human AML MV-4-11 (CRL-9591) cells; assay: Inhibition of cell proliferation in MV4-11 cells; assay type: cell-based; conditions: human AML MV-4-11 cells, 72 h; active = IC50 <30 μM
Procedure: MV4-11 cells: 96-well plates were seeded with 5×10^4 cells per well of exponentially growing human AML MV-4-11 (CRL-9591) cells and immediately treated with two-fold dilutions of test compounds, ranging from 30 μM to 0.2 μM. Triplicate wells were used for each concentration, as well as a media only and three DMSO control wells. The cells and compounds were incubated at 37° C., 5% CO2 for 72 h before adding 20 μL of the CellTiter Aqueous One Solution (Promega) to each well and incubating at 37° C., 5% CO2 for an additional 3-4 h. The absorbance was taken at 490 nm in a spectrophotometer and the percentage of proliferation relative to DMSO-treated cells was calculated after correction from the blank well. IC50 were calculated using the GraphPad Prism software.

[5] = tested on: hIL-6 mRNA; assay: Inhibition of hIL-6 mRNA transcription in U937 cells; assay type: cell-based, human; conditions: LPS stimulation, active = IC50 <30 μM
Method in brief: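 U937 cells differentiated 3 days with 60 ng/mL PMA, pretreated 1 h with compound, then stimulated with 1 ug/mL E. coli LPS for 3 h at 37° C. hIL-6 mRNA quantified by one-step qRT-PCR, Ct normalized to internal control, expressed as fold induction relative to control.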

T1 sequence (P25440 344-453 limits assumed): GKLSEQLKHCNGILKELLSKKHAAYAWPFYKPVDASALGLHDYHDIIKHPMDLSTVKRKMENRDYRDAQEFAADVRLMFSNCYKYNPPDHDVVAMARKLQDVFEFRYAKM

Cc1noc(C)c1-c1ccc(=O)n(CCc2ccccc2)n1 [Example 1, 6-(3,5-Dimethylisoxazol-4-yl)-2-phenethylpyridazin-3(2H)-one]
FRET activity (IC50 <30 μM) BRD2(2) [1]: Active | c-myc activity (IC50 <30 μM) [2]: Not Active | FRET activity (IC50 <30 μM) BRD4(1) [3]: Active | Cell Proliferation activity (IC50 <30 μM) [4]: Not Active | IL-6 activity (IC50 <30 μM) [5]: Not Active

Cc1noc(C)c1-c1ccc(=O)n(Cc2cccc(C(F)(F)F)c2)c1 [Example 4, 5-(3,5-Dimethylisoxazol-4-yl)-1-(3-(trifluoromethyl)benzyl)pyridin-2(1H)-one]
FRET activity (IC50 <30 μM) BRD2(2) [1]: Active | c-myc activity (IC50 <30 μM) [2]: Active | FRET activity (IC50 <30 μM) BRD4(1) [3]: Active | Cell Proliferation activity (IC50 <30 μM) [4]: Active | IL-6 activity (IC50 <30 μM) [5]: Active

COc1cc(-c2ccc(=O)n(Cc3cccc(C#N)c3)n2)cc(OC)c1OC [Example 15, 3-((6-Oxo-3-(3,4,5-trimethoxyphenyl)pyridazin-1(6H)-yl)methyl)benzonitrile]
FRET activity (IC50 <30 μM) BRD2(2) [1]: Active | c-myc activity (IC50 <30 μM) [2]: Not Active | FRET activity (IC50 <30 μM) BRD4(1) [3]: Active | Cell Proliferation activity (IC50 <30 μM) [4]: Not Active | IL-6 activity (IC50 <30 μM) [5]: Active

Cc1noc(C)c1-c1cc(C)c(=O)n(Cc2ccccc2)n1 [Example 21, 2-Benzyl-6-(3,5-dimethylisoxazol-4-yl)-4-methylpyridazin-3(2H)-one]
FRET activity (IC50 <30 μM) BRD2(2) [1]: Active | c-myc activity (IC50 <30 μM) [2]: Active | FRET activity (IC50 <30 μM) BRD4(1) [3]: Active | Cell Proliferation activity (IC50 <30 μM) [4]: Not Active | IL-6 activity (IC50 <30 μM) [5]: Active

Cc1noc(C)c1-c1ccc(=O)n(Cc2ccccc2C#N)n1 [Example 24, 2-((3-(3,5-Dimethylisoxazol-4-yl)-6-oxopyridazin-1(6H)-yl)methyl)benzonitrile]
FRET activity (IC50 <30 μM) BRD2(2) [1]: Active | c-myc activity (IC50 <30 μM) [2]: Not Active | FRET activity (IC50 <30 μM) BRD4(1) [3]: Active | Cell Proliferation activity (IC50 <30 μM) [4]: Active | IL-6 activity (IC50 <30 μM) [5]: Not Active

Cc1noc(C)c1-c1ccc(=O)n(Cc2ccc(Cl)cc2)n1 [Example 25, 2-(4-Chlorobenzyl)-6-(3,5-dimethylisoxazol-4-yl)pyridazin-3(2H)-one]
FRET activity (IC50 <30 μM) BRD2(2) [1]: Active | c-myc activity (IC50 <30 μM) [2]: Active | FRET activity (IC50 <30 μM) BRD4(1) [3]: Active | Cell Proliferation activity (IC50 <30 μM) [4]: Active | IL-6 activity (IC50 <30 μM) [5]: Active

Cc1ccccc1Cn1nc(-c2c(C)noc2C)ccc1=O [Example 28]
FRET activity (IC50 <30 μM) BRD2(2) [1]: Active | c-myc activity (IC50 <30 μM) [2]: Active | FRET activity (IC50 <30 μM) BRD4(1) [3]: Active | Cell Proliferation activity (IC50 <30 μM) [4]: Active | IL-6 activity (IC50 <30 μM) [5]: Active

Cc1ccc(Cn2nc(-c3c(C)noc3C)ccc2=O)cc1 [Example 29, 6-(3,5-Dimethylisoxazol-4-yl)-2-(4-methylbenzyl)pyridazin-3(2H)-one]
FRET activity (IC50 <30 μM) BRD2(2) [1]: Active | c-myc activity (IC50 <30 μM) [2]: Active | FRET activity (IC50 <30 μM) BRD4(1) [3]: Active | Cell Proliferation activity (IC50 <30 μM) [4]: Active | IL-6 activity (IC50 <30 μM) [5]: Active

Cc1cccc(Cn2nc(-c3c(C)noc3C)ccc2=O)c1 [Example 30, 6-(3,5-Dimethylisoxazol-4-yl)-2-(3-methylbenzyl)pyridazin-3(2H)-one]
FRET activity (IC50 <30 μM) BRD2(2) [1]: Active | c-myc activity (IC50 <30 μM) [2]: Not Active | FRET activity (IC50 <30 μM) BRD4(1) [3]: Active | Cell Proliferation activity (IC50 <30 μM) [4]: Active | IL-6 activity (IC50 <30 μM) [5]: Active

Cc1noc(C)c1-c1ccc(=O)n(C(C)c2ccccc2C(F)(F)F)n1 (stereo not drawn) [Example 34, 6-(3,5-Dimethylisoxazol-4-yl)-2-(1-(2-(trifluoromethyl)phenyl)ethyl)pyridazin-3(2H)-one]
FRET activity (IC50 <30 μM) BRD2(2) [1]: Active | c-myc activity (IC50 <30 μM) [2]: Active | FRET activity (IC50 <30 μM) BRD4(1) [3]: Active | Cell Proliferation activity (IC50 <30 μM) [4]: Active | IL-6 activity (IC50 <30 μM) [5]: Active

Cc1noc(C)c1-c1ccc(=O)n(Cc2cccc(F)c2)c1 [Example 42, 5-(3,5-Dimethylisoxazol-4-yl)-1-(3-fluorobenzyl)pyridin-2(1H)-one]
FRET activity (IC50 <30 μM) BRD2(2) [1]: Active | c-myc activity (IC50 <30 μM) [2]: Active | FRET activity (IC50 <30 μM) BRD4(1) [3]: Active | Cell Proliferation activity (IC50 <30 μM) [4]: Active | IL-6 activity (IC50 <30 μM) [5]: Active

Cc1noc(C)c1-c1cc(F)c(=O)n(Cc2ccccc2)c1 [Example 63, 1-Benzyl-5-(3,5-dimethylisoxazol-4-yl)-3-fluoropyridin-2(1H)-one]
FRET activity (IC50 <30 μM) BRD2(2) [1]: Active | c-myc activity (IC50 <30 μM) [2]: Active | FRET activity (IC50 <30 μM) BRD4(1) [3]: Active | Cell Proliferation activity (IC50 <30 μM) [4]: Active | IL-6 activity (IC50 <30 μM) [5]: Active

Cc1noc(C)c1-c1cc(Cl)c(=O)n(Cc2ccccc2)c1 [Example 64, 1-Benzyl-3-chloro-5-(3,5-dimethylisoxazol-4-yl)pyridin-2(1H)-one]
FRET activity (IC50 <30 μM) BRD2(2) [1]: Active | c-myc activity (IC50 <30 μM) [2]: Active | FRET activity (IC50 <30 μM) BRD4(1) [3]: Active | Cell Proliferation activity (IC50 <30 μM) [4]: Active | IL-6 activity (IC50 <30 μM) [5]: Active

Cc1noc(C)c1-c1cc(N)c(=O)n(C(C)c2ccccc2)c1 (stereo not drawn) [Example 263, 3-amino-5-(3,5-dimethylisoxazol-4-yl)-1-(1-phenylethyl)pyridin-2(1H)-one]
c-myc activity (IC50 <30 μM) [2]: Active | FRET activity (IC50 <30 μM) BRD4(1) [3]: Active | Cell Proliferation activity (IC50 <30 μM) [4]: Active | IL-6 activity (IC50 <30 μM) [5]: Active

Cc1noc(C)c1-c1cc(N)c(=O)n(Cc2ccc(C#N)s2)c1 [Example 264, 5-((3-amino-5-(3,5-dimethylisoxazol-4-yl)-2-oxopyridin-1(2H)-yl)methyl)thiophene-2-carbonitrile]
c-myc activity (IC50 <30 μM) [2]: Active | FRET activity (IC50 <30 μM) BRD4(1) [3]: Active | Cell Proliferation activity (IC50 <30 μM) [4]: Active | IL-6 activity (IC50 <30 μM) [5]: Active

Cc1noc(C)c1-c1cc(N)c(=O)n(Cc2ccc(I)cc2)c1 [Example 267, 3-amino-5-(3,5-dimethylisoxazol-4-yl)-1-(4-iodobenzyl)pyridin-2(1H)-one]
c-myc activity (IC50 <30 μM) [2]: Active | FRET activity (IC50 <30 μM) BRD4(1) [3]: Active | Cell Proliferation activity (IC50 <30 μM) [4]: Active | IL-6 activity (IC50 <30 μM) [5]: Active

Cc1noc(C)c1-c1cc(N)c(=O)n(Cc2c[nH]c3ccccc23)c1 [Example 270, 1-((1H-indol-3-yl)methyl)-3-amino-5-(3,5-dimethylisoxazol-4-yl)pyridin-2(1H)-one]
c-myc activity (IC50 <30 μM) [2]: Active | FRET activity (IC50 <30 μM) BRD4(1) [3]: Active | Cell Proliferation activity (IC50 <30 μM) [4]: Active | IL-6 activity (IC50 <30 μM) [5]: Active

Cc1noc(C)c1-c1cc(N)c(=O)n(Cc2ccc(Br)c(C#N)c2)c1 [Example 272, 5-((3-amino-5-(3,5-dimethylisoxazol-4-yl)-2-oxopyridin-1(2H)-yl)methyl)-2-bromobenzonitrile]
c-myc activity (IC50 <30 μM) [2]: Active | FRET activity (IC50 <30 μM) BRD4(1) [3]: Active | Cell Proliferation activity (IC50 <30 μM) [4]: Active | IL-6 activity (IC50 <30 μM) [5]: Active

Cc1noc(C)c1-c1cc(N)c(=O)n(Cc2ccc(C#N)c(Br)c2)c1 [Example 273, 4-((3-amino-5-(3,5-dimethylisoxazol-4-yl)-2-oxopyridin-1(2H)-yl)methyl)-2-bromobenzonitrile]
c-myc activity (IC50 <30 μM) [2]: Active | FRET activity (IC50 <30 μM) BRD4(1) [3]: Active | Cell Proliferation activity (IC50 <30 μM) [4]: Active | IL-6 activity (IC50 <30 μM) [5]: Active

Cc1noc(C)c1-c1cc(N)c(=O)n(Cc2cccc3ncccc23)c1 [Example 274, 3-amino-5-(3,5-dimethylisoxazol-4-yl)-1-(quinolin-5-ylmethyl)pyridin-2(1H)-one]
c-myc activity (IC50 <30 μM) [2]: Active | FRET activity (IC50 <30 μM) BRD4(1) [3]: Active | Cell Proliferation activity (IC50 <30 μM) [4]: Active | IL-6 activity (IC50 <30 μM) [5]: Active
